Reference: the CheMixHub viscosity set

Test: xn = mol fraction of the nth substance listed
Conditions: 101 kPa

CN(C)C=O + CCCO
viscosity [mPa·s]
Conditions	293.15 K	298.15 K	303.15 K	308.15 K	313.15 K	318.15 K	323.15 K
x1 = 0.4512	–	1.232	–	–	–	–	–
x1 = 0.5	–	–	0.893	–	0.764	–	0.655
x2 = 0.1001	–	–	0.7821	0.7366	0.6955	0.6569	0.6217
x2 = 0.1007	0.9529	–	0.8538	–	0.7741	–	0.7068
x2 = 0.2001	–	–	0.8111	0.7618	0.7167	0.6752	0.638
x2 = 0.2026	0.9902	–	0.8826	–	0.7929	–	0.7215
x2 = 0.2518	1.01	–	0.8911	–	0.7973	–	0.7241
x2 = 0.3	–	–	0.8451	0.7912	0.742	0.698	0.657
x2 = 0.3548	1.03	–	0.9064	–	0.8052	–	0.7257
x2 = 0.3967	–	–	0.8868	0.8273	0.7741	0.7256	0.6801
x2 = 0.5002	–	–	0.9267	0.8623	0.8042	0.7517	0.7022
x2 = 0.5007	1.109	–	0.9588	–	0.84	–	0.7422
x2 = 0.5008	1.127	–	0.977	–	0.8569	–	0.7593
x2 = 0.5981	–	–	–	–	0.8728	–	–
x2 = 0.5982	1.175	–	1.01	–	–	–	0.7643
x2 = 0.6	–	–	0.9903	0.9169	0.8505	0.7912	0.7367
x2 = 0.6981	1.315	–	1.112	–	0.9521	–	0.8239
x2 = 0.7001	–	–	1.076	0.9904	0.9148	0.8466	0.784
x2 = 0.75	1.368	–	1.146	–	0.9688	–	0.8261
x2 = 0.7989	1.476	–	1.231	–	1.037	–	0.8829
x2 = 0.8001	–	–	1.204	1.1	1.008	0.9264	0.8521
x2 = 0.8981	1.734	–	1.412	–	1.164	–	0.9688
x2 = 0.9001	–	–	1.403	1.272	1.153	1.074	0.955
